Assays:
Settings in all cases: exposure time: 72 h
E13 [1] = patient-derived glioblastoma stem cells of classical subtype; experiment: surviving fraction (nuclei count normalised to DMSO); higher = more cells surviving (less toxic)
E21 [2] = patient-derived glioblastoma stem cells of mesenchymal subtype; experiment: as above
E28 [3] = patient-derived glioblastoma stem cells of classical subtype; experiment: as above
E31 [4] = patient-derived glioblastoma stem cells of proneural subtype; experiment: as above
E34 [5] = patient-derived glioblastoma stem cells of proneural subtype; experiment: as above
E57 [6] = patient-derived glioblastoma stem cells of mesenchymal subtype; experiment: as above
FT3469 [7] = normal neural stem cell line; experiment: as above
E13 [8] = experiment: phenotypic distance (Euclidean, principal components) from DMSO controls (arbitrary units); higher = stronger morphological change
E21 [9] = experiment: as above
E28 [10] = experiment: as above
E31 [11] = experiment: as above
E34 [12] = experiment: as above
E57 [13] = experiment: as above
FT3469 [14] = experiment: as above
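Wherever phenotypic distance (Euclidean, principal components) from DMSO controls is given: cell Painting imaging in 384-well plates, CellProfiler features reduced to at least 20 principal components, Euclidean distance versus same-plate DMSO vehicle wells (0.1% v/v), median over six images per well.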
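Wherever surviving fraction (nuclei count normalised to DMSO) is given: nuclei counted by high-content imaging of Hoechst-stained cells in laminin-coated 384-well plates, relative to 0.1% DMSO vehicle wells, with staurosporine as cell-death control.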

CC[C@@]1(O)C(=O)OCc2c1cc1n(c2=O)Cc2cc3c(CN(C)C)c(O)ccc3nc2-1 [Topotecan]
Settings	phenotypic distance	surviving fraction
E13 [1], 4.1 nM	–	0.414
E13 [1], 12.3 nM	–	0.381
E13 [1], 37 nM	–	0.367
E13 [1], 111.1 nM	–	0.279
E13 [1], 333.3 nM	–	0.251
E13 [1], 1000 nM	–	0.206
E13 [1], 3000 nM	–	0.176
E13 [8], 4.1 nM	5.03	–
E13 [8], 12.3 nM	5.52	–
E13 [8], 37 nM	5.83	–
E13 [8], 111.1 nM	6.68	–
E13 [8], 333.3 nM	6.45	–
E13 [8], 1000 nM	6.68	–
E13 [8], 3000 nM	7.15	–
E21 [2], 4.1 nM	–	0.191
E21 [2], 12.3 nM	–	0.135
E21 [2], 37 nM	–	0.114
E21 [2], 111.1 nM	–	0.115
E21 [2], 333.3 nM	–	0.13
E21 [2], 1000 nM	–	0.113
E21 [2], 3000 nM	–	0.104
E21 [9], 4.1 nM	4.95	–
E21 [9], 12.3 nM	5.78	–
E21 [9], 37 nM	6.25	–
E21 [9], 111.1 nM	6.93	–
E21 [9], 333.3 nM	5.67	–
E21 [9], 1000 nM	5.76	–
E21 [9], 3000 nM	5.07	–
E28 [3], 4.1 nM	–	0.408
E28 [3], 12.3 nM	–	0.351
E28 [3], 37 nM	–	0.384
E28 [3], 111.1 nM	–	0.347
E28 [3], 333.3 nM	–	0.333
E28 [3], 1000 nM	–	0.288
E28 [3], 3000 nM	–	0.28
E28 [10], 4.1 nM	3.44	–
E28 [10], 12.3 nM	3.75	–
E28 [10], 37 nM	3.05	–
E28 [10], 111.1 nM	3.65	–
E28 [10], 333.3 nM	3.55	–
E28 [10], 1000 nM	4.27	–
E28 [10], 3000 nM	4.08	–
E31 [4], 4.1 nM	–	0.173
E31 [4], 12.3 nM	–	0.149
E31 [4], 37 nM	–	0.188
E31 [4], 111.1 nM	–	0.176
E31 [4], 333.3 nM	–	0.249
E31 [4], 1000 nM	–	0.17
E31 [4], 3000 nM	–	0.213
E31 [11], 4.1 nM	3.31	–
E31 [11], 12.3 nM	3.53	–
E31 [11], 37 nM	2.95	–
E31 [11], 111.1 nM	3.38	–
E31 [11], 333.3 nM	3.17	–
E31 [11], 1000 nM	3.49	–
E31 [11], 3000 nM	3.68	–
E34 [5], 4.1 nM	–	0.539
E34 [5], 12.3 nM	–	0.576
E34 [5], 37 nM	–	0.519
E34 [5], 111.1 nM	–	0.55
E34 [5], 333.3 nM	–	0.529
E34 [5], 1000 nM	–	0.519
E34 [5], 3000 nM	–	0.389
E34 [12], 4.1 nM	3.5	–
E34 [12], 12.3 nM	2.99	–
E34 [12], 37 nM	3.02	–
E34 [12], 111.1 nM	2.09	–
E34 [12], 333.3 nM	2.86	–
E34 [12], 1000 nM	4.13	–
E34 [12], 3000 nM	3.32	–
E57 [6], 4.1 nM	–	0.321
E57 [6], 12.3 nM	–	0.211
E57 [6], 37 nM	–	0.175
E57 [6], 111.1 nM	–	0.164
E57 [6], 333.3 nM	–	0.145
E57 [6], 1000 nM	–	0.129
E57 [6], 3000 nM	–	0.109
E57 [13], 4.1 nM	6.01	–
E57 [13], 12.3 nM	7.66	–
E57 [13], 37 nM	7.47	–
E57 [13], 111.1 nM	7.5	–
E57 [13], 333.3 nM	7.56	–
E57 [13], 1000 nM	6.96	–
E57 [13], 3000 nM	7.64	–
FT3469 [7], 4.1 nM	–	0.622
FT3469 [7], 12.3 nM	–	0.625
FT3469 [7], 37 nM	–	0.634
FT3469 [7], 111.1 nM	–	0.653
FT3469 [7], 333.3 nM	–	0.629
FT3469 [7], 1000 nM	–	0.446
FT3469 [7], 3000 nM	–	0.464
FT3469 [14], 4.1 nM	2.65	–
FT3469 [14], 12.3 nM	1.91	–
FT3469 [14], 37 nM	2.54	–
FT3469 [14], 111.1 nM	2.79	–
FT3469 [14], 333.3 nM	2.66	–
FT3469 [14], 1000 nM	3.43	–
FT3469 [14], 3000 nM	3.06	–
